Measurements as given in patent US20250115597A1, “TYK2 INHIBITORS AND COMPOSITIONS AND METHODS THEREOF” (LYNK PHARMACEUTICALS CO. LTD., priority 2021, published 2025).

Molecular target: T1, Ba/F3-FL-TYK2-P760L cells (Homo sapiens, UniProt P29597, P760L, cells depend on it)
T1 construct: BaF3-FL-T2P760L (nM)
Test: Anti-proliferative assay, Ba/F3-FL-TYK2-P760L cells (Cell-Titer Glo)
Type: cell-based
Details: 72 h, read-out: BaF3-FL-T2P760L IC50
Description: Anti-Proliferative Assay Dimerization domain of Tel protein fused with JAK kinase domain was permanently transduced into Ba/F3 cells, whose proliferation is dependent on JAK activity in the absence of IL-3 induction. These engineered Ba/F3 cells (Ba/F3-FL-TYK2-[…], Ba/F3-TEL-TYK2 and Ba/F3-TEL-JAK2) were used to monitor JAK inhibitory activities of the compounds in the cellular. […] Cells were seeded at 2000/well of white flat bottom 96-well plates. The well containing medium only was used as background control. After 24 h growth, cells were treated with compounds. The test compounds were dissolved in DMSO to a stock concentration of 20 mM. 3-fold serially diluted compounds for 9 concentrations with top concentration of 20 μM was added into the each well. […] The cells continued to grow at 37° C. in 5% CO2 for 72 h after compound treatment. The viability was measured by cellular ATP determination using the Cell-Titer Glo luciferase reagent (Promega). The Luminescence value was recorded by a multi-label reader Envision (PerkinElmer).

T1 sequence (P29597 whole entry P760L): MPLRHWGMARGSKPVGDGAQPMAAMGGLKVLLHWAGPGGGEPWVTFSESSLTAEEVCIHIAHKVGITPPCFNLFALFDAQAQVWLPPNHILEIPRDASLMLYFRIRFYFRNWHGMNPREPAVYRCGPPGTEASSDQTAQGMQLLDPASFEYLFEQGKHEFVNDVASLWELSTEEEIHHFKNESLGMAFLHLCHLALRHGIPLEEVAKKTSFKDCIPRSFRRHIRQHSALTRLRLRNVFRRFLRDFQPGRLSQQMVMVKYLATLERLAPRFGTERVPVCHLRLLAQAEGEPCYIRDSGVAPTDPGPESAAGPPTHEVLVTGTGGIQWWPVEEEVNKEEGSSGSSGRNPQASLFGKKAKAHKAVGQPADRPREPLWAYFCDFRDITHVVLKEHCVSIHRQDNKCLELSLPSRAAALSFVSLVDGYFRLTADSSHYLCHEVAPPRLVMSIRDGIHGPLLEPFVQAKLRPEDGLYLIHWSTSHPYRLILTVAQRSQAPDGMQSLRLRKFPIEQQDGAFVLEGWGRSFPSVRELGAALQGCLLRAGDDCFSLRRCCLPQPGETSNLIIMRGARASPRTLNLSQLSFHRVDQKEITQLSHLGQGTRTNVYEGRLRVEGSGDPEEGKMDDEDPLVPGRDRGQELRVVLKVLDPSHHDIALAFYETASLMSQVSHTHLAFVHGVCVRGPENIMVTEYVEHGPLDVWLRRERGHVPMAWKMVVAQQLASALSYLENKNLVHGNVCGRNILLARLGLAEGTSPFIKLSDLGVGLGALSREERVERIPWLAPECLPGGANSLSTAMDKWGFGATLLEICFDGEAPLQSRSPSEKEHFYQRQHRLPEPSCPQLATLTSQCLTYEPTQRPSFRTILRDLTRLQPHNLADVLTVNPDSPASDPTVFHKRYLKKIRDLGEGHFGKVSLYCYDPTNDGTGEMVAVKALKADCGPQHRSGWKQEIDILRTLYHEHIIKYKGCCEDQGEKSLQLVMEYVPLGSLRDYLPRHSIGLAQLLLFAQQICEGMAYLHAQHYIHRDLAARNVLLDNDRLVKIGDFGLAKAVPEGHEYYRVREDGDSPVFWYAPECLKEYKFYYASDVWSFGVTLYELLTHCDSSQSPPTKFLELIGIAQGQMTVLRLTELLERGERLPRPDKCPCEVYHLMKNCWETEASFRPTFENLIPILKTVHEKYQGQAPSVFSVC

GI50 [nM]	Compound
1420	CNC(=O)c1cnc(NC(=O)C2CC2)cc1Nc1ccc2nc3n(c2c1OC)CCC3 [Example 248, 6-(Cyclopropanecarboxamido)-4-((8-methoxy-2,3-dihydro-1H-benzo[d]pyrrolo[1,2-a]imidazol-7-yl)amino)-N-methylnicotinamide]
548	[2H]C([2H])([2H])NC(=O)c1cnc(Nc2ccc(F)cc2)nc1Nc1cn(C)c2ccn(C)c(=O)c12 [Example 4, 4-((1,5-Dimethyl-4-oxo-4,5-dihydro-1H-pyrrolo[3,2-c]pyridin-3-yl)amino)-2-((4-fluorophenyl)amino)-N-(methyl-d3)pyrimidine-5-carboxamide]
330	[2H]C([2H])([2H])NC(=O)c1cnc2nc1Nc1cc(cc(-c3ncn(C)n3)c1OC)COCc1cc(F)cc(n1)N2 [Example 81, 19-Fluoro-10-methoxy-N-(methyl-d3)-11-(1-methyl-1H-1,2,4-triazol-3-yl)-15-oxa-2,4,8,21,23-pentaazatetracyclo[15.3.1.1^{3,7}.1^{9,13}]tricosa-1(21),3,5,7(23),9(22),10,12,17,19-nonaene-6-carboxamide]
2040	CNC(=O)c1cnc(NC(=O)C2CC2(F)F)nc1Nc1cccc(-c2ncn(C)n2)c1OC (centres unmarked) [Example 64, 2-(2,2-Difluorocyclopropane-1-carboxamido)-4-((2-methoxy-3-(1-methyl-1H-1,2,4-triazol-3-yl)phenyl)amino)-N-methylpyrimidine-5-carboxamide]
378	[2H]C([2H])([2H])NC(=O)c1cnc(NC(=O)C2CC2)cc1Nc1ccc2cnn(C3CCOCC3)c2c1OC [Example 127, 6-(Cyclopropanecarboxamido)-4-((7-methoxy-1-(tetrahydro-2H-pyran-4-yl)-1H-indazol-6-yl)amino)-N-(methyl-d3)nicotinamide]
1900	[2H]C([2H])([2H])NC(=O)c1cnc(NC(=O)C2CC2)cc1Nc1csc2cnn(CC(C)OC)c(=O)c12 (centres unmarked) [Example 181, 6-(Cyclopropanecarboxamido)-4-((5-(2-methoxypropyl)-4-oxo-4,5-dihydrothieno[2,3-d]pyridazin-3-yl)amino)-N-(methyl-d3)nicotinamide]
856	CNC(=O)c1nnc2cc1Nc1cc(cc(-c3ncn(C)n3)c1OC)CN(C)Cc1cccc(n1)N2 [Example 32, 10-Methoxy-N,15-dimethyl-11-(1-methyl-1,2,4-triazol-3-yl)-2,4,5,8,15,21-hexazatetracyclo[15.3.1.13,7.19,13]tricosa-1(21),3(23),4,6,9,11,13(22),17,19-nonaene-6-carboxamide]
3270	[2H]C([2H])([2H])NC(=O)c1cnc(NC(=O)C2CC2)cc1Nc1ccc2onc(CC)c2c1OC [Example 233, 6-(Cyclopropanecarboxamido)-4-((3-ethyl-4-methoxybenzo[d]isoxazol-5-yl)amino)-N-(methyl-d3)nicotinamide]
183	[2H]C([2H])([2H])NC(=O)c1cnc(NC(=O)C2CC2)cc1Nc1csc2c(Cl)cn(CC(F)(F)F)c(=O)c12 [Example 176, 4-((7-Chloro-4-oxo-5-(2,2,2-trifluoroethyl)-4,5-dihydrothieno[3,2-c]pyridin-3-yl)amino)-6-(cyclopropanecarboxamido)-N-(methyl-d3)nicotinamide]
108	[2H]C([2H])([2H])NC(=O)c1cnc(NC(=O)C2CC2)cc1Nc1ccc2cnn(C3CC3)c2c1OC [Example 143, 6-(Cyclopropanecarboxamido)-4-((1-cyclopropyl-7-methoxy-1H-indazol-6-yl)amino)-N-(methyl-d3)nicotinamide]
2420	[2H]C([2H])([2H])NC(=O)c1cnc(NC(=O)C2(C(F)(F)F)CC2)cc1Nc1cn(C)c2ccn(CC)c(=O)c12 [Example 104, 4-[(5-Ethyl-1-methyl-4-oxo-pyrrolo[3,2-c]pyridin-3-yl)amino]-N-(methyl-d3)-6-[[1-(trifluoromethyl)cyclopropanecarbonyl]amino]pyridine-3-carboxamide]
287	CCn1ncc2scc(Nc3cc(NC(=O)C4CC4)ncc3C(=O)OC)c2c1=O [Example 178, Methyl 6-(cyclopropanecarboxamido)-4-((5-ethyl-4-oxo-4,5-dihydrothieno[2,3-d]pyridazin-3-yl)amino)nicotinate]
3810	COC(=O)c1cnc(NC(=O)C2CC2)cc1Nc1cnc2ccn(CC(F)(F)F)c(=O)n12 [Example 48, Methyl 6-(cyclopropanecarboxamido)-4-((5-oxo-6-(2,2,2-trifluoroethyl)-5,6-dihydroimidazo[1,2-c]pyrimidin-3-yl)amino)nicotinate]
483	CNC(=O)c1cnc(NC(=O)C2CC2)nc1Nc1cn(C)c2ccn(C)c(=O)c12 [Example 1, 2-(Cyclopropanecarboxamido)-4-((1,5-dimethyl-4-oxo-4,5-dihydro-1H-pyrrolo[3,2-c]pyridin-3-yl)amino)-N-methylpyrimidine-5-carboxamide]
154	[2H]C([2H])([2H])NC(=O)c1cnc(NC(=O)C2CC2)cc1Nc1cn(C)c2ccn(C3CCC3)c(=O)c12 [Example 111, 4-((5-Cyclobutyl-1-methyl-4-oxo-4,5-dihydro-1H-pyrrolo[3,2-c]pyridin-3-yl)amino)-6-(cyclopropanecarboxamido)-N-(methyl-d3)nicotinamide]
124	[2H]C([2H])([2H])NC(=O)c1cnc(NC(=O)C2CC2)cc1Nc1csc2c(Cl)cn(C(C)C)c(=O)c12 [Example 175, 4-((7-Chloro-5-isopropyl-4-oxo-4,5-dihydrothieno[3,2-c]pyridin-3-yl)amino)-6-(cyclopropanecarboxamido)-N-(methyl-d3)nicotinamide]
523	[2H]C([2H])([2H])NC(=O)c1cnc(NC(=O)C2CC2)cc1Nc1cn(C)c2ccn(C3CC3)c(=O)c12 [Example 108, 6-(Cyclopropanecarboxamido)-4-((5-cyclopropyl-1-methyl-4-oxo-4,5-dihydro-1H-pyrrolo[3,2-c]pyridin-3-yl)amino)-N-(methyl-d3)nicotinamide]
676	[2H]C([2H])([2H])NC(=O)c1cnc2cc1Nc1cc(cc(-c3ncn(C(C)C)n3)c1OC)COCc1cccc(n1)N2 [Example 84, 10-Methoxy-N-(methyl-d3)-11-[1-(propan-2-yl)-1H-1,2,4-triazol-3-yl]-15-oxa-2,4,8,21-tetraazatetracyclo[15.3.1.1^{3,7}.1^{9,13}]tricosa-1(21),3,5,7(23),9(22),10,12,17,19-nonaene-6-carboxamide]
25.9	[2H]C([2H])([2H])NC(=O)c1cnc(Nc2cc(F)ccn2)cc1Nc1cn(C)c2c(Cl)cn(CC)c(=O)c12 [Example 162, 4-((7-Chloro-5-ethyl-1-methyl-4-oxo-4,5-dihydro-1H-pyrrolo[3,2-c]pyridin-3-yl)amino)-6-((4-fluoropyridin-2-yl)amino)-N-(methyl-d3)nicotinamide]
1180	[2H]C([2H])([2H])NC(=O)c1cnc(Nc2cccc(C(F)(F)F)n2)nc1Nc1cccc(-c2ncn(C)n2)c1OC [Example 62, 4-((2-Methoxy-3-(1-methyl-1H-1,2,4-triazol-3-yl)phenyl)amino)-N-(methyl-d3)-2-((6-(trifluoromethyl)pyridin-2-yl)amino)pyrimidine-5-carboxamide]
1100	[2H]C([2H])([2H])NC(=O)c1cnc(NC(=O)C2CC2)cc1Nc1cn(C)c2ccn([C@@H]3CCOC3)c(=O)c12 [Example 114, (R)-6-(cyclopropanecarboxamido)-N-(methyl-d3)-4-((1-methyl-4-oxo-5-(tetrahydrofuran-3-yl)-4,5-dihydro-1H-pyrrolo[3,2-c]pyridin-3-yl)amino)nicotinamide]
213	[2H]C([2H])([2H])NC(=O)c1nnc2cc1Nc1cc(cc(-c3ncc(F)cn3)c1OC)COCc1nc(ccc1F)N2 [Example 80, 18-Fluoro-11-(5-fluoropyrimidin-2-yl)-10-methoxy-N-(methyl-d3)-15-oxa-2,4,5,8,21-pentaazatetracyclo[15.3.1.1^{3,7}.1^{9,13}]tricosa-1(20),3,5,7(23),9(22),10,12,17(21),18-nonaene-6-carboxamide]
357	[2H]C([2H])([2H])NC(=O)c1cnc(NC(=O)C2CC2)cc1Nc1ccc2cnn(CCOC)c2c1OC [Example 130, 6-(Cyclopropanecarboxamido)-4-((7-methoxy-1-(2-methoxyethyl)-1H-indazol-6-yl)amino)-N-(methyl-d3)nicotinamide]
1710	[2H]C([2H])([2H])NC(=O)c1cnc(NC(=O)[C@H]2C[C@H](C#N)C2)cc1Nc1ccc2cnn(CC)c2c1OC [Example 128B, 6-((Trans)-3-cyanocyclobutane-1-carboxamido)-4-((1-ethyl-7-methoxy-1H-indazol-6-yl)amino)-N-(methyl-d3)nicotinamide]
796	[2H]C([2H])([2H])NC(=O)c1cnc(Nc2ccc(F)cc2F)nc1Nc1cccc(-c2ncn(C)n2)c1OC [Example 63, 2-((2,4-Difluorophenyl)amino)-4-((2-methoxy-3-(1-methyl-1H-1,2,4-triazol-3-yl)phenyl)amino)-N-(methyl-d3)pyrimidine-5-carboxamide]
294	[2H]C([2H])([2H])NC(=O)c1cnc(NC(=O)C2CC2)cc1Nc1cn(CCOC2CC2)c2ccn(CC)c(=O)c12 [Example 221, 6-(Cyclopropanecarboxamido)-4-((1-(2-cyclopropoxyethyl)-5-ethyl-4-oxo-4,5-dihydro-1H-pyrrolo[3,2-c]pyridin-3-yl)amino)-N-(methyl-d3)nicotinamide]
